The values below are quoted from earlier work in PubChem BioAssay AID1259410 (Chemical Carcinogenesis Research Information System (CCRIS), 2018).

This data set deals with rodent tumor promotion studies, tumor incidence. Kind of data set: CCRIS tumor promotion studies.

Take `O=C(OO)c1cccc(Cl)c1`: the outcome (Carcinogen: 7,12-DIMETHYLBENZ(A)ANTHRACENE, Doses [Carcinogen]: TOP, Route [Carcinogen]: DERMAL, Route [Promoter]: DERMAL, Species: MOUSE, Strain/Sex: FEMALE) is on record as “integumentary system (skin)”. Consider `Cn1cnc([N+](=O)[O-])c1S`, for which the outcome (Carcinogen: UV IRRADIATION, Doses [Carcinogen]: 0.53 J/CM2 INCREASED BY 20% EVERY 2 WK TO 1.60 J/CM2 AND MAINTAINED AT 1.60 J/CM2 UNTIL DEATH, ADMINISTERED 5 D/WK FOR 1, Doses [Promoter]: 0, 15 UG/G BEGINNING 2 WK POST FIRST CARCINOGEN DOSE ADMINISTERED 2 HR PRIOR TO EACH CARCINOGEN DOSE (STUDY DURATION: 30, Route [Carcinogen]: DERMAL, Route [Promoter]: INTRAPERITONEAL, Species: MOUSE, Strain/Sex: SKH/HRL/FEMALE) is given as “skin: tumor”. For the compound `O=c1[nH]cnc2[nH]ncc12`, the outcome (Carcinogen: N-(4-(5-NITRO-2-FURYL)-2-THIAZOLYL)FORMAMIDE, Doses [Carcinogen]: DIET, Doses [Promoter]: IN DIET, Route [Carcinogen]: ORAL, Route [Promoter]: ORAL, Species: RAT, Strain/Sex: FEMALE) is “urinary bladder”.

Regarding `COS(C)(=O)=O`, the outcome (Carcinogen: N-METHYL-N-NITROSOUREA, 684-93-5, Doses [Carcinogen]: 0.3 MG IN CITRIC ACID PHOSPHATE BUFFER ONCE FOR 30 MIN, Doses [Promoter]: 0, 2.5 MG IN BUFFER 1/2 WK FOR 12 WK BEGINNING 14 D POST CARCINOGEN (STUDY DURATION: 2 YR), Route [Carcinogen]: INTRAVESICULAR, Route [Promoter]: INTRAVESICULAR, Species: RAT, Strain/Sex: F344/FEMALE) was “bladder: papillary transitional cell carcinoma”.

Consider `CCCC1(CCCCCCCCCCCC(=O)OC2C(C)C3(O)C(C=C(CO)CC4(O)C(=O)C(C)=CC43)C3C(C)(C)C23OC(C)=O)OCC(C)(C)N1[O]` (stereo not given), for which, for the setting “Carcinogen: 7,12-DIMETHYLBENZ[A]ANTHRACENE, 57-97-6, Doses [Carcinogen]: 100 NMOL ONCE, Doses [Promoter]: 0, 20 NMOL 2/WK FOR 24 WK BEGINNING 1 WK POST CARCINOGEN DOSE (STUDY DURATION: 25 WK), Route [Carcinogen]: DERMAL, Route [Promoter]: DERMAL, Species: MOUSE, Strain/Sex: NMRI/FEMALE”, the outcome is listed as “skin: tumor”.

`CC(C(=O)O)c1ccc(-c2ccccc2)c(F)c1` (stereo not given): for the setting “Carcinogen: N-METHYL-N'-NITRO-N-NITROSOGUANIDINE, 70-25-7, Doses [Carcinogen]: 10 MG ADMINISTERED AS 3 D TREATMENT CYCLES FOLLOWED BY REST PERIODS FOR A TOTAL OF 6 CYCLES (TOTAL DOSE 180 MG DURING 40, Doses [Promoter]: 0.5 MG ADMINISTERED AS 3 D TREATMENT CYCLES FOLLOWED BY REST PERIODS ADMINISTERED CONCURRENTLY WITH CARCINOGEN DURING 40, Route [Carcinogen]: INTRAGASTRIC, Route [Promoter]: GAVAGE, Species: RAT, Strain/Sex: WISTAR/FEMALE”, the outcome was “stomach: adenocarcinoma; small intestine: adenocarcinoma”. For `CC(=O)Nc1ccc2c(c1)Cc1ccccc1-2`, the outcome runs as follows: (Carcinogen: DIETHYLNITROSAMINE, 55-18-5, Doses [Carcinogen]: 50 MG/KG ONCE 24 HR AFTER 2/3 PARTIAL HEPATECTOMY, Doses [Promoter]: 0, 0.02% IN DIET FOR 1 MO BEGINNING 1 WK POST CARCINOGEN DOSE (STUDY DURATION: 8 MO), Route [Carcinogen]: INTRAPERITONEAL, Route [Promoter]: ORAL, Species: RAT, Strain/Sex: WISTAR/MALE) “liver: carcinoma”; (Carcinogen: DIETHYLNITROSAMINE, 55-18-5, Doses [Carcinogen]: 200 MG/KG BW IN 0.9% SALINE ONCE, Doses [Promoter]: 0, 0.05 MMOL/KG BW IN POLYETHYLENE GLYCOL FOR 5 D BEGINNING 1 WK POST CARCINOGEN DOSE, 70% PARTIAL HEPATECTOMY PERFORMED, Route [Carcinogen]: INTRAPERITONEAL, Route [Promoter]: GAVAGE, Species: RAT, Strain/Sex: SPRAGUE-DAWLEY/MALE) “liver: hepatocellular carcinoma”. Consider `Oc1ccccc1O`, for which the outcome is, setting by setting: (Carcinogen: DIETHYLNITROSAMINE, 55-18-5, N-METHYL-N-NITROSOUREA, 684-93-5, 1,2-DIMETHYLHYDRAZINE, 540-73-8, N-BUTYL-N-(4-HYDRO, Carcinogen: DIETHYLNITROSAMINE, 55-18-5, N-METHYL-N-NITROSOUREA, 684-93-5, 1,2-DIMETHYLHYDRAZINE, 540-73-8, N-BUTYL-N-(4-HYDRO, Doses [Carcinogen]: 100 MG/KG BW DEN ONCE THEN 20 MG/KG BW MNU 1/D FOR 4 D FOLLOWED BY 40 MG/KG BW DMH 1/D FOR 4 D, 0.05% BHBN IN DRINKING W, Doses [Promoter]: 0, 0.8% IN DIET FOR 24 WK BEGINNING 3 D POST CARCINOGEN TREATMENT (STUDY DURATION: 28 WK), Route [Carcinogen]: INTRAPERITONEAL, INTRAPERITONEAL, SUBCUTANEOUS, ORAL, Route [Carcinogen]: INTRAPERITONEAL, INTRAPERITONEAL, SUBCUTANEOUS, ORAL, Route [Promoter]: ORAL, Species: RAT, Strain/Sex: F344/MALE) “forestomach: papilloma, squamous cell carcinoma; glandular stomach: adenoma, ade”; (Carcinogen: DIETHYLNITROSAMINE, 55-18-5, N-METHYLNITROSOUREA, 684-93-5, 1,2-DIMETHYLHYDRAZINE, 540-73-8, N-BUTYL-N-(4-HYDROXYBUTYL)N, Carcinogen: DIETHYLNITROSAMINE, 55-18-5, N-METHYLNITROSOUREA, 684-93-5, 1,2-DIMETHYLHYDRAZINE, 540-73-8, N-BUTYL-N-(4-HYDROXYBUTYL)N, Doses [Carcinogen]: 100 MG/KG BW DEN ONCE FOLLOWED BY 20 MG/KG BW MNU 2/WK FOR 2 WK THEN 40 MG/KG BW DMH 2/WK FOR THE NEXT 2WK, 0.05% BBN IN, Doses [Promoter]: 0, 0.16% IN DIET FOR 24 WK BEGINNING POST CARCINOGEN TREATMENT (STUDY DURATION: 28 WK), Route [Carcinogen]: INTRAPERITONEAL, INTRAPERITONEAL, SUBCUTANEOUS, ORAL, Route [Carcinogen]: INTRAPERITONEAL, INTRAPERITONEAL, SUBCUTANEOUS, ORAL, Route [Promoter]: ORAL, Species: RAT, Strain/Sex: F344/MALE) “forestomach: papilloma”; (Carcinogen: DIETHYLNITROSAMINE, 55-18-5, N-METHYLNITROSOUREA, 684-93-5, DIHYDROXY-DI-N- PROPYLNITROSAMINE, 53609-64-6, Carcinogen: DIETHYLNITROSAMINE, 55-18-5, N-METHYLNITROSOUREA, 684-93-5, DIHYDROXY-DI-N- PROPYLNITROSAMINE, 53609-64-6, Doses [Carcinogen]: 100 MG/KG/BW DEN ONCE AT BEGINNING OF STUDY THEN 20 MG/KG/BW MNU ONCE ON D 2, 5, 8 AND 11 OF STUDY FOLLOWED BY 0.1% DHPN, Doses [Promoter]: 0, 0.8% IN DIET BEGINNING POST CARCINOGEN TREATMENT AND CONTINUING FOR DURATION OF STUDY (STUDY DURATION: 20 WK), Route [Carcinogen]: INTRAPERITONEAL, INTRAPERITONEAL, ORAL, Route [Carcinogen]: INTRAPERITONEAL, INTRAPERITONEAL, ORAL, Route [Promoter]: ORAL, Species: RAT, Strain/Sex: F344/MALE) “forestomach: squamous cell papilloma”; (Carcinogen: METHYL-N-AMYLNITROSAMINE, 13256-07-0, Doses [Carcinogen]: 25 MG/KG AT WK 0, WK 1, AND WK 2 (TOTAL 3 TREATMENTS), Doses [Promoter]: 0, 0.8% IN DIET FOR 49 WK BEGINNING 1 WK POST CARCINOGEN DOSE (STUDY DURATION: 5 WK), Route [Carcinogen]: INTRAPERITONEAL, Route [Promoter]: ORAL, Species: RAT, Strain/Sex: F344/MALE) “tongue: papilloma; esophagus: carcinoma”; (Carcinogen: N-METHYL-N'-NITRO-N-NITROSOGUANIDINE, 70-25-7, Doses [Carcinogen]: 150 MG/KG ONCE, Doses [Promoter]: 0, 0.8% IN DIET BEGINNING 1 WK POST CARCINOGEN DOSE (STUDY DURATION: 52 WK), Route [Carcinogen]: GAVAGE, Route [Promoter]: ORAL, Species: RAT, Strain/Sex: F344) “forestomach: carcinoma; glandular stomach: adenocarcinoma”; (Carcinogen: N-METHYL-N-NITROSOUREA, 684-93-5, Doses [Carcinogen]: 120 PPM IN DRINKING WATER FOR 1-WK PERIODS EVERY OTHER WEEK FOR A TOTAL OF 3 WK OF TREATMENT, Doses [Promoter]: 0, 0.05, 0.2, 0.8% IN DIET FOR 30 WK BEGINNING POST CARCINOGEN TREATMENT (STUDY DURATION: 35 WK), Doses [Promoter]: 0, 0.05, 0.2, 0.8% IN DIET FOR 30 WK BEGINNING POST CARCINOGEN TREATMENT (STUDY DURATION: 35 WK), Route [Carcinogen]: ORAL, Route [Promoter]: ORAL, Species: MOUSE, Strain/Sex: BALB/MALE) “glandular stomach: adenoma”. Where the note is “Carcinogen: N-METHYL-N-NITROSOUREA, 684-93-5, Doses [Carcinogen]: 120 PPM IN DRINKING WATER FOR 1-WK PERIODS EVERY OTHER WK FOR A TOTAL OF 3 WK OF TREATMENT, Doses [Promoter]: 0, 0.8% IN DIET FOR 30 WK BEGINNING POST CARCINOGEN TREATMENT (STUDY DURATION: 35 WK), Route [Carcinogen]: ORAL, Route [Promoter]: ORAL, Species: MOUSE, Strain/Sex: BALB/MALE”, the outcome was “glandular stomach: adenocarcinoma”.
